Source: US6630123B1, “Method to enhance tissue accumulation of radiolabeled compounds” (Board of Supervisors of Louisiana State University and …, priority 1997, dated 2003)
Where no end group is shown, it is not given here.

Key:
[1] = system: tumor in the left side of the neck (metastatic small cell carcinoma); conditions: in vivo
Procedure: During and after each administration of the last eight doses, a tumor in the left side of the neck was monitored for radioligand uptake with an ion chamber survey meter, a Victoreen 450P ion chamber, which measures external gamma dose rates. Administration of the initial seven doses were by bolus inject ion. The last three doses were delivered by infusion with various activities of radioligand.
The external gamma dose rates from radioligand accumulation in the neck tumor area were measured immediately and 24 hr after injection. After the treatment of the fifth month, the patient was monitored for radioligand uptake for an extended period—at 2, 4, and 8 days after the injection.
Four months after the final bolus dose, the first dose by infusion (“Infusion 1”) was administered. A dose equivalent to the previous bolus dose (175.9 mCi) was given, but the radioligand was administered by infusion over 72 hr at a constant rate of 2.5 mCi/hr.
One month later, in “Infusion 2,” the total dose was increased to 389.2 mCi. By infusion, 189.8 mCi of the radioligand was given over the first 24 hr, 108.6 mCi over the second 24 hr, and 90.8 mCi over the third 24 hr. For each 24 hr period, the infusion rate was kept constant.
One month later, a third dose was administered by infusion (“Infusion 3”). A dose of 301 mCi was infused the first 24 hr period. […]

[2] = system: neuroendocrine cancers expressing the somatostatin receptor; experiment: Pilot clinical trial of monthly 180 mCi doses; assay type: in vivo, human; conditions: ten patients
Procedure: For six months, pilot clinical trials were conducted in ten human patients with progressive metastatic indolent and symptomatic neuroendocrine cancers expressing the somatostatin receptor. […] The first monthly dose was a bolus injection of 180 mCi. The second monthly dose was infusion of 180 mCi over 72 hr. The third monthly dose was infusion of 180 mCi over 24 hr. Thereafter, all monthly doses were infusion of 180 mCi over 24 hr. Clinical benefits (as evidenced by reduced pain, weight gain, reduced malaise, etc.) occurred in 6 of the 10 neuroendocrine (carcinoid/islet cell) patients. Partial radiographic responses (greater than 50% reduction in the product of perpendicular tumor diameters) occurred in 2 patients, and significant tumor necrosis developed in 7 of the 10 neuroendocrine patients. Treatment-related toxicity included 2 Grade III platelet, 1 Grade II WBC, 1 Grade I WBC and 2 Grade I Hb on the NCI (National Cancer Institute) grading scale.

[3] = system: human placental vein discs (angiogenic vascular tissue); experiment: Human Placental Vein Angiogenesis Model; assay type: cell-based; conditions: 50 μCi/mL (or equivalent amounts)
Excerpt: Watson et al., “Up-Regulation of Somatostatin Receptor Subtype 2. (SST-2) mRNA Occurs During the Transformation of Human Endothelium to the Angiogenic Phenotype,” Paper Presented at the 12th International Symposium on Regulatory Peptides, Copenhagen, Denmark, September 1996; J. C. Watson et al., “SST-2 Gene Expression Appears During Human Angiogenesis,” Regulatory Peptides, vol. 64, p. 206 (Abstract) (1996); and J. C. Watson et al., “Breast Cancer Increases Initiation of Angiogenesis Without Accelerating Neovessel Growth Rate,” Surgery, vol. 122, pp. 508-14 (1997). Human placental veins were cut into discs of 2 mm diameter and were incorporated into a 0.3% fibrinogen gel. This gel was then overlaid with tissue culture media containing 10-20% fetal calf serum (FCS). Under normal conditions, endothelial cords will begin to sprout from the transected cut edge of the vein discs within six days.
These vein discs were placed into wells of three separate culture plates. One culture plate, the control sample, was allowed to grow without treatment. […] The discs were then incubated for fourteen days. After 14 days the culture plates were examined for the number of wells in which angiogenic growth was initiated. […] The molar concentration of the radiolabeled somatostatin analog added to the culture plates was in the femtomolar range (10^−15). This concentration is 1000× or more below the concentration of unlabeled somatostatin analog that is known to inhibit angiogenesis; a concentration of 10^−5 M to 10^−8 M. Thus any effect was due to the radiolabel and not just the presence of the somatostatin analog. […] Only the radiolabel connected to the somatostatin analog would be incorporated into the DNA. Thus the greater decrease is due to this incorporation and the Auger emission on DNA.
Using a digital image analyzer, the mean area of the sprouting tissue surrounding the discs was measured.
To measure the growth rate of angiogenic vascular tissue, every two days during the 14-day incubation period, the length of sprouts were measured. […]

[4] = system: MCF-7 breast cancer cell line; experiment: Specific binding of radiolabeled estradiol with time, MCF-7; assay type: cell-based, human
Procedure: (§1) To follow the time of uptake of a steroid hormone, three cell lines were incubated with a radiolabeled estrogen using procedures similar to those of Example 2. Three breast cancer cell lines were used; MCF-7 (ATCC No. HTB-22), T47D (ATCC No. HTB-133), and ZR-75-1 (ATCC No. CRL-1500). The estrogen used was 17-β-estradiol, the major secreted estrogen in humans. The radiolabeled compound was ^125I-17-β-estradiol, which was either purchased from New England Nuclear or synthesized by the following procedure: A 10 ml Sephadex G-10 column was equilibrated for 1 hr with 0.1 M PBS. A solution was prepared of 12.5 μg estradiol conjugate (BL-43), 25 μl methanol, 50 μl 0.05 M phosphate buffer pH 7.5, 3 mCi Na^125I, and 25 μl of a mixture of 10 mg chloramine-T and 10 ml 0.05 M phosphate buffer. After mixing for 40 sec, 25 μl of sodium metabisulfite 20 mg/10 ml 0.05 M Phosphate buffer was added and mixed an additional 40 sec. The mixture was then added to the Sephadex column and eluted first with 0.1 M PBS. Finally, the radiolabeled estradiol was eluted with 0.1 M PBS and 1,4 Dioxane (70:30).
(§2) The standard binding procedure described in Example 2 was used except that radiolabeled estradiol was used as the ligand with 1000× excess non-radioactive estradiol as the competitor. Unlike peptides that initially must bind on the plasma membrane, steroids bind only to intracellular receptors. Thus no radioactivity on the membrane should be found.

[5] = system: ZR-75-1 breast cancer cell line; experiment: Specific binding of radiolabeled estradiol with time, ZR-75-1; assay type: cell-based, human
Procedure: as §1, §2

[6] = system: T47D breast cancer cell line; experiment: Specific binding of radiolabeled estradiol with time, T47D; assay type: cell-based, human; conditions: T-47D
Procedure: as §1, §2

IMR-32 cells = experiment: Nuclear translocation, Percoll density gradient fractionation; assay type: cell-based, human
Procedure: The cells were washed twice in media at 4° C. and resuspended in cold isotonic sucrose. The labeled cells were passed through a ballbearing homogenizer three times to disrupt cell membranes while leaving approximately 95% of the cell nuclei intact, according to the method of Balch et al., Arch. Biochem. Biophys., vol. 240, p. […] The cell homogenate was mixed with Percoll to give a final concentration of 0.292% Percoll and spun at 20,400 rpm in a Beckman 40.2 rotor for 45 min to generate a density gradient. Density marker beads (Pharmacia) were used to indicate density levels in the tube. The contents of the tube were fractionated in an ISCO Density Gradient Fractionator. The resulting tubes were assayed for content of radiolabeled somatostatin or analogs, DNA to indicate nuclei, protein, the plasma membrane marker 5′-nucleotidase, and the lysosome marker N-acetylglucosaminidase. The usual assumption was made that the radioactivity measured in fractions rich in a certain cell component was in fact associated with that component; e.g., the radioactivity measured in a fraction rich in plasma membrane was due to association of the radiolabeled compound with the plasma membrane.

[7] = cited from earlier work
[8] = system: human placental-derived vascular endothelial cells; experiment: Binding and internalization in angiogenic vascular endothelial cells; assay type: cell-based; conditions: 500,000 cells, 500,000 cpm, acid wash, FIG. 17
Excerpt: Human placental-derived vascular endothelial cells were used to assay for cell binding of the somatostatin analog, ^125I-JIC-2D. The radioligand, a somatostatin analog, ^125I-JIC-2D, was made by solid phase peptide synthesis as described in U.S. Pat. No. 5,597,894. This peptide has an amino acid sequence of the following: D-Lys-D-Tyr-D-Lys-D-Tyr-D-Lys-C[Cys-Phe-D-Trp-Lys-Thr-Cys]-Thr-NH2. The cells were obtained by growing discs of human placental veins in fibrinclots for 14 days. […] These discs and their angiogenic sprouts are harvested mechanically and dissociated by vortexing. The vein discs are then discarded and the endothelial cells pooled. Cells were harvested, counted with a hemocytometer, and resuspended in binding buffer (Minimum Essential Medium (MEM), 10 mM Hepes, 0.01% BSA). A standard assay used 500,000 cells in 1 ml of binding buffer. […] At the termination of the experiment, the incubation medium was removed, the cells were rinsed twice with Hanks balanced salt solution (HBSS), and the radioactivity in the cells determined using a gamma counter. This level of radioactivity represents total binding, which includes both membrane-bound and internalized fractions. Specific binding was determined by calculating the difference in the levels of measured radioactivity without the unlabeled competitor minus the radioactivity with the unlabeled competitor. […]

With `C[C@@H](O)[C@@H]1NC(=O)[C@H](CCCCN)NC(=O)[C@@H](Cc2c[nH]c3ccccc23)NC(=O)[C@H](Cc2ccccc2)NC(=O)[C@@H](NC(=O)[C@@H](Cc2ccccc2)NC(=O)CN2CCN3CCN(CC(=O)O)CC(=O)[O][111In]([O]C(=O)C3)[O]C(=O)C2)CSSC[C@@H](C(=O)N[C@H](CO)[C@@H](C)O)NC1=O` [^111In-pentetreotide, ^111In-DTPA-D-Phe^1-octreotide] the “half-life of exponential decay of tumor radioactivity (approached physical half-life of the radioligand)” value ([1]; female, human) was roughly 67.3 h, the “persistence of tumor foci on gamma camera scintigraphy” value [1] was “still identifiable by gamma scintigraphy thirteen days after completion of the last infusion dose” and the “Treatment-related toxicity: Grade I Hb (NCI scale), number of cases” value [2] was 2. The “Treatment-related toxicity: Grade I WBC (NCI scale), number of cases” value [2] was 1, the “Treatment-related toxicity: Grade II WBC (NCI scale), number of cases” value [2] was 1 and the “Treatment-related toxicity: Grade III platelet (NCI scale), number of cases” value [2] was 2.

With ^111In-Cl the “growth rate (mm/day) of angiogenic vascular tissue” value ([3]; 14-day incubation, FIG. 20) was “substantially below that of the control”, the “% initiation of angiogenic growth” value ([3]; 14 days, FIG. 18) was “substantially less than the control plate” and the “vessel area (mm^2) of sprouting tissue” value ([3]; 14 days, FIG. 19) was “substantially less”.

In the case of ^125I-17-β-estradiol, the “Specific Binding” value ([4]; MCF-7, 1 Hr) is reported as 1605 CPM, the “Specific Binding” value ([4]; MCF-7, 4 Hr) is reported as 2253 CPM and the “Specific Binding” value ([4]; MCF-7, 24 Hr) is reported as 4109 CPM. The “Specific Binding” value ([4]; MCF-7, 48 Hr) was 731 CPM, the “Specific Binding” value ([5]; ZR-75-1, 1 Hr) was 4102 CPM and the “Specific Binding” value ([5]; ZR-75-1, 4 Hr) was 4865 CPM. For the same compound, the “Specific Binding” value ([5]; ZR-75-1, 24 Hr) was 3370 CPM, the “Specific Binding” value ([5]; ZR-75-1, 48 Hr) was 3057 CPM and the “Specific Binding” value ([6]; 1 Hr) was 401 CPM. For the same compound, the “Specific Binding” value ([6]; 4 Hr) was 506 CPM, the “Specific Binding” value ([6]; 24 Hr) was 532 CPM and the “Specific Binding” value ([6]; 48 Hr) was 455 CPM.

In the case of “^125I-somatostatin: radiolabeled native somatostatin, very short-lived peptide (AGCKNFFWKTFTSC; ends and bridges not checked; also: 125I label, site not given here; UniProt P61278 103-116, looked up)”, the “cellular distribution of radioactivity (membrane vs nuclear fractions)” value (IMR-32 cells; 1 hr incubation) is reported as “both membrane binding and small amounts of nuclear binding”, the “cellular distribution of radioactivity (membrane vs nuclear fractions)” value (IMR-32 cells; 4 hr incubation) is reported as “plasma membrane binding appeared to have peaked and the nuclear fraction was dissipating” and the “cellular distribution of radioactivity (membrane vs nuclear fractions)” value (IMR-32 cells; 24 hr incubation) is reported as “essentially no plasma membrane or nuclear binding was seen”.

In the case of `CC(C)[C@@H]1NC(=O)[C@H](CCCCN)NC(=O)[C@@H](Cc2c[nH]c3ccccc23)NC(=O)[C@H](Cc2ccc(O)cc2)NC(=O)[C@@H](NC(=O)[C@H](N)Cc2ccc3ccccc3c2)CSSC[C@@H](C(=O)N[C@H](C(N)=O)[C@@H](C)O)NC1=O` [lanreotide], the biologic half-life [7] is given as 60-90 min.

In the case of “D-Lys-D-Tyr-D-Lys-D-Tyr-D-Lys-C[Cys-Phe-D-Trp-Lys-Thr-Cys]-Thr-NH2 [^125I-JIC-2D]”, the binding and internalization [8] is reported as “the vast majority of the radioligand was internalized into the cell”.
